In US9226902B2, “Stabilized transdermal drug delivery system” (Mylan Technologies Inc., priority 2008, dated 2016):

Test: Glass transition temperature (DSC)
Assay type: physicochemical
Conditions: amorphous form
Method: The glass transition temperature of undispersed amorphous scopolamine is about 10° C.

## CN1[C@@H]2C[C@@H](OC(=O)[C@H](CO)c3ccccc3)C[C@H]1[C@@H]1O[C@@H]12 [undispersed amorphous scopolamine, scopolamine]
  glass transition temperature (Tg): about 10 °C
